Common to all, as to type: cell-based
What all share (parameters): WT (1–553); expressed in transfected cells; HEK 293T (cAMP)

The target in one experiment is T1, GLP-2R R242^ECL1A (Homo sapiens, UniProt O95838, R242A).
T1 sequence (O95838 1-553 R242A): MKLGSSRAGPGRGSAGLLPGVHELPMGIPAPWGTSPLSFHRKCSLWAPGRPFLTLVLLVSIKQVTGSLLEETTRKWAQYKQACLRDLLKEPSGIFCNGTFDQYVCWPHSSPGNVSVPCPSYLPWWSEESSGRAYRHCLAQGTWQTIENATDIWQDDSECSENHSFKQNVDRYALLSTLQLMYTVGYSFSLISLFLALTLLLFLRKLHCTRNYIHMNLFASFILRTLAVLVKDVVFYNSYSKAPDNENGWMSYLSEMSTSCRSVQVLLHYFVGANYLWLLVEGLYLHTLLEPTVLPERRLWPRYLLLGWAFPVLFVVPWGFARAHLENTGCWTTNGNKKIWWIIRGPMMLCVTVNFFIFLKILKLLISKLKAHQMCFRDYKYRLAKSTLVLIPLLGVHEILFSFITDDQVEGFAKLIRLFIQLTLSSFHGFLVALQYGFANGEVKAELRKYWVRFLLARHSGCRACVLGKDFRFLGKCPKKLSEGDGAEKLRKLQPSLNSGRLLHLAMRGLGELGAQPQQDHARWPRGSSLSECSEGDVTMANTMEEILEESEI
Put plainly: cAMP accumulation, R242^ECL1A. To be noted: 30 min, RT, mean ± SEM, n ≥ 3 in duplicate; for Emax: HEK-293T, read-out: cAMP Emax (% WT); for EC50: HEK 293T, read-out: cAMP pEC50 (converted). The protocol: (§1) HEK 293T cells were cultured in Dulbecco’s Modified Eagle’s Medium (DMEM) (Gibco, Waltham, USA) supplemented with 10% (v/v) fetal bovine serum (FBS) (Gibco) and 1% (v/v) sodium pyruvate (Gibco) at 37 °C, 5% CO2 in a humidified incubator. They were seeded onto 6-well cell culture plates and transiently transfected with different GLP-2R constructs using Lipofectamine 2000 transfection reagent (Invitrogen, Carlsbad, CA, USA). After 24 h, the transfected cells were seeded onto 384-well microtiter plates (3000 cells per well) in HBSS supplemented with 5 mM HEPES, 0.1% (w/v) bovine serum albumin (BSA) and 0.5 mM 3-isobutyl-1- methylxanthine, and stimulated with increasing concentrations of GLP-2 for 30 min at RT. Eu and Ulight were diluted by cAMP detection buffer and added to the plates separately to terminate the reaction. Plates were incubated at RT for 60 min before measuring the fluorescence intensity at 620 nm and […] by an EnVision multilabel plate reader (PerkinElmer, Boston, USA).

The target of another experiment is T2, GLP-2R Y252^ECL1A (Homo sapiens, UniProt O95838, Y252A).
T2 sequence (O95838 1-553 Y252A): T1 sequence (O95838 1-553 R242A) with A242R, Y252A
Briefly: cAMP accumulation, Y252^ECL1A. To be noted: HEK 293T, 30 min, RT, mean ± SEM, n ≥ 3 in duplicate; for Emax: HEK-293T, read-out: cAMP Emax (% WT); for EC50: read-out: cAMP pEC50 (converted). The protocol:
as §1, with “They” for “HEK 293T cells were cultured in Dulbecco’s Modified Eagle’s Medium (DMEM) (Gibco, Waltham, USA) supplemented with 10% (v/v) fetal bovine serum (FBS) (Gibco) and 1% (v/v) sodium pyruvate (Gibco) at 37 °C, 5% CO2 in a humidified incubator. They”

The target in the next experiment is T3, GLP-2R R242^ECL1E (Homo sapiens, UniProt O95838, R242E).
T3 sequence (O95838 1-553 R242E): T1 sequence (O95838 1-553 R242A) with A242E
Put plainly: cAMP accumulation, R242^ECL1E. As to conditions: HEK 293T, 30 min, RT, mean ± SEM, n ≥ 3 in duplicate; for Emax: HEK-293T, read-out: cAMP Emax (% WT); for EC50: read-out: cAMP pEC50 (converted). The protocol: as §1, with “They” for “HEK 293T cells were cultured in Dulbecco’s Modified Eagle’s Medium (DMEM) (Gibco, Waltham, USA) supplemented with 10% (v/v) fetal bovine serum (FBS) (Gibco) and 1% (v/v) sodium pyruvate (Gibco) at 37 °C, 5% CO2 in a humidified incubator. They”
Background: Cyclic AMP is a second messenger, typically raised through Gs and lowered through Gi signalling.

Residue numbers refer to the chain shown, from its start. Where two headings read alike, the source gives them in different places. No end group written: not given here.

The Emax is the greatest response seen or fitted, relative to the assay's reference. As to `CC[C@H](C)[C@H](NC(=O)[C@H](Cc1ccccc1)NC(=O)[C@H](CC(=O)O)NC(=O)[C@H](CCCNC(=N)N)NC(=O)[C@H](C)NC(=O)[C@H](C)NC(=O)[C@H](CC(C)C)NC(=O)[C@H](CC(N)=O)NC(=O)[C@H](CC(=O)O)NC(=O)[C@H](CC(C)C)NC(=O)[C@@H](NC(=O)[C@@H](NC(=O)[C@H](CC(N)=O)NC(=O)[C@H](CCSC)NC(=O)[C@H](CCC(=O)O)NC(=O)[C@H](CC(=O)O)NC(=O)[C@H](CO)NC(=O)[C@H](Cc1ccccc1)NC(=O)[C@H](CO)NC(=O)CNC(=O)[C@H](CC(=O)O)NC(=O)[C@H](C)NC(=O)[C@@H](N)Cc1c[nH]cn1)[C@@H](C)O)[C@@H](C)CC)C(=O)N[C@@H](CC(N)=O)C(=O)N[C@@H](Cc1c[nH]c2ccccc12)C(=O)N[C@@H](CC(C)C)C(=O)N[C@H](C(=O)N[C@@H](CCC(N)=O)C(=O)N[C@H](C(=O)N[C@@H](CCCCN)C(=O)N[C@H](C(=O)N[C@H](C(=O)N[C@@H](CC(=O)O)C(=O)O)[C@@H](C)O)[C@@H](C)CC)[C@@H](C)O)[C@@H](C)CC` [Human GLP-2 (1–33)], the Emax on GLP-2R R242^ECL1A (Table S3, R242A) turned out to be 107 ± 3.4%; on GLP-2R R242^ECL1A (Table S5, R242A), 104 ± 2.3%; on GLP-2R Y252^ECL1A (Table S3, Y252A) it was 103 ± 2.6%; at GLP-2R Y252^ECL1A (Table S5, Y252A), 102 ± 2.2%; at GLP-2R R242^ECL1E (Table S3, R242E) it was 108 ± 1.9%; at GLP-2R R242^ECL1E (Table S5, R242E), 103 ± 2.3%.
Take “HADGSFSDEMNTILDNLAAKEFIAWLVKGRG [Chimeric GLP-1/GLP-2 (20-33)]”: the maximal response (Emax) is 102 ± 3.1% on GLP-2R R242^ECL1A (Table S5, R242A); 104 ± 2.1% on GLP-2R Y252^ECL1A (Table S5, Y252A); 103 ± 3.5% on GLP-2R R242^ECL1E (Table S5, R242E). For the same compound, the EC50 at GLP-2R R242^ECL1A (Table S5, R242A) is 1.26 nM; on GLP-2R Y252^ECL1A (Table S5, Y252A), 3.98 nM; at GLP-2R R242^ECL1E (Table S5, R242E), 5.01 nM.
Take “HADGSFTSDVSSYLEGQAARDFINWLIQTKITD [Chimeric GLP-1/GLP-2 (7-19)]”: the Emax was found to be 106 ± 4.9% on GLP-2R R242^ECL1A (Table S5, R242A); 106 ± 5.1% on GLP-2R Y252^ECL1A (Table S5, Y252A); 108 ± 5.5% on GLP-2R R242^ECL1E (Table S5, R242E). Further, the EC50 at GLP-2R R242^ECL1A (Table S5, R242A) was 25.1 nM; on GLP-2R Y252^ECL1A (Table S5, Y252A) it was 50.1 nM; on GLP-2R R242^ECL1E (Table S5, R242E) it was 39.8 nM.
Turning to “HAEGTFSDEMNTILDNLAARDFINWLIQTKITD [Chimeric GLP-1/GLP-2 (1-6)]”, the Emax turned out to be 105 ± 3.2% at GLP-2R R242^ECL1A (Table S5, R242A); 103 ± 3.1% at GLP-2R Y252^ECL1A (Table S5, Y252A); 108 ± 3.2% on GLP-2R R242^ECL1E (Table S5, R242E). The EC50 on GLP-2R R242^ECL1A (Table S5, R242A) was 7.94 nM; at GLP-2R Y252^ECL1A (Table S5, Y252A) it was 6.31 nM; on GLP-2R R242^ECL1E (Table S5, R242E), 25.1 nM.

Values taken from paper PMC7785020, “A unique hormonal recognition feature of the human glucagon-like peptide-2 receptor” (Cell Research, 2020).
